Measured values reported in patent publication US7258999B2, “PTH responsive gene” (Wyeth, priority 2002, dated 2007).

Tests used:
PAIGB protein = assay: Immunohistochemistry of PAIGB protein in mouse calvariae; type: in vivo; conditions: Swiss Webster mice, 20 μg/kg/day sc onto the calvariae, 18 days
Description: Immunohistochemical analysis of PAIGB protein express can be assessed in various animal species such as human bone biopsy samples, mouse, rat, or dog bone samples etc., that have been treated with potential bone anabolic agents. For example, Swiss Webster mice were treated with 20 μg/kg/day PTH 1-34 subcutaneously onto the calvariae for 18 days. Following the 18 days, the calvariae samples were harvested and PAIGB protein expression was analyzed using the PAIGB polyclonal antibody (FIG. 20, FIG. 21 and FIG. 22).
The mouse calvariae was gently dissected and fixed in 10% phosphate-buffered formalin. After fixation, the calvariae were decalcified in TBD-2 decalcifying agent (SHANDON, Cat. # 6764003) for 7-8 hrs, dehydrated in graded alcohol, embedded in paraffin. The calvariae was bisected perpendicular to the sagittal suture through the central portion of the parietal bones parallel to the lambdoidal and coronal sutures and embedded in paraffin. Four to six 5 μm-thick representative, non-consecutive step sections were cut. Various sections were stained with hematoxylin and eosin (H&E) (Sigma, St. Louis, Mo.) and adjacent section were used for immunohistochemistry. The bone samples were then deparafinized in xylene and rehydrated in graded ethanol and PBS. […] The peroxidase was detected using peroxidase substrate kit DAB (SK-4100, Vector Laboratories).

[1] = test system: PAIGB expression in ROS 17/2.8 cells; assay: Real time PCR of PAIGB expression in ROS 17/2.8 cells; type: cell-based, rat; conditions: 10 nM
Excerpt: Applicants performed multiplex real time PCR (TaqMan) analysis on previously DNAsed samples using gene specific probe and primers and 18S ribosomal RNA probe and primer sets purchased from Applied Biosystem. (Foster City, Calif.) The samples were DNAsed according to the protocol provided by Ambion (DNA-free kit). TaqMan probe and primers for PAIGB was identify using Primer Express computer program. The sequence for rat PAIGB TaqMan probe was 6FAM-5′[…] (SEQ ID NO: 16) forward and reverse primers were 5′[…] 3′ (SEQ ID NO:17) and 5′ […] 3′ (SEQ ID NO:18) respectively. The final concentrations for probes were 500 nM and 40 nM for PAIGB and 18S ribosomal RNA or GAPDH respectively. The concentrations of the primers were 500 nM for PAIGB forward and reversed primers while 18S primers were 10 and 20 nM for forward and reversed primer respectively or 40 nM for GAPDH primers. Standards for rat samples were made from rat tibia or brain RNA in the range of 250 ng to 0.1 ng, while standards for mouse specific TaqMan were made from mouse brain RNA and human standards from human brain RNA (Clonetech, Palo Alto, Calif.) spanning the same range of concentration. Primers and probes for mouse PAIGB were: forward 5′ […] 3′ (SEQ ID NO:19), reverse, 5′ […] (SEQ ID NO:21). Primers and probes for human PAIGB were: forward 5′ […] 3′ (SEQ ID NO:22), reverse 5′ […] 3′(SEQ ID NO: 24). The Taq-man analysis was done using ABI 7700 Sequence Detector under following conditions: 30 min at 48° C., 10 min at 95° C. and 40 cycles of 15 sec at 95° C. and 60 sec at 60° C. Analysis of real-time PCR analysis was performed using (Sequence Detector, Macintosh) program.
Five cell types were primarily used in our experiments. Rat osteoblast cell line (ROS 17/2.8) that expresses moderate levels of PTH receptor 1 (Rodan et al, Rev. Eukaryotic Gene Expression 1:85-98, 1991) were used to perform in vitro experiments. ROS cells were maintained under standard cell culture conditions: 10% heat inactivated FBS in Dulbecco's Modified Eagle Medium with Nutrient Mixture F-12 (DMEM/F12) media, 1% Penicillin/Streptomycin and 1% Glutamax. Mouse cell line C3H10T½ (ATCC# CCL226) as a representative of mouse osteoprogenitor cell line were maintained in Eagles Minimal Essential Media (EMEM) with the addition of 10% heat inactivated FBS and 1% Penicillin/Streptomycin and 1% Glutamax. UMR106 rat osteoblastic cells (ATCC# CRL1661) were cultured in Dulbecco's Modified Eagle Medium (DMEM) supplemented with 10% heat inactivated FBS, 1% Penicillin/Streptomycin and 1% Glutamax. The U2OS human osteoblastic cells (ATCC# HTB96) were cultured in McCoy's 5A Medium Modified supplemented with 10% FBS, 1% Penicillin/Streptomycin and 1% Glutamax. The human HOB-03-CE6 cell line (Bodine, V. N. P., et. al., J. Cell. Biochem., 65: 368-387,1997) was maintained in phenol red free DMEM/F12 media supplemented with 10% heat inactivated FBS and 1% Penicillin/Streptomycin and 1% Glutamax.
ROS 17/2.8 rat osteoblast cell line that express PTH receptor (˜80000 receptors/cell) were treated with increased doses of PTH: 1 nM, 10 nM, 100 nM and 1000 nM. Real time PCR using rat specific Taq-man probes and primers were used to examine the changes in PAIGB expression with PTH treatment.
Time course of PTH induction of PAIGB expression was examined. ROS 17/2.8_cells were treated with 10 nM PTH and RNA was harvested at 1, 2, 4, 6, 8 and 24 hours post treatment.

Substance: human PTH (1-34)
- PAIGB protein expression in calvariae (immunohistochemistry) (PAIGB protein): induced
- PAIGB message with increasing concentrations ([1]; 1 nM, 100 nM and 1000 nM): dose-dependent increase
- maximal increase of PAIGB expression ([1]; 4 hours time point): 2.66+/−0.3
- effect on PAIGB expression 8 hours post treatment ([1]; 8 hours): completely abolished
- induction of PAIGB expression ([1]; data not shown): 6 fold
